Earlier results on two compounds are cited in patent publication US20100292280A1, “ANTI-PYRETIC VASODILATORS” (priority 2007, published 2010).

The subject of series [1] is forearm and dorsum of the foot skin of healthy subjects and diabetic neuropathic patients.
Another series concerns healthy adults. The following applies: ingestion of 5 mg niacin per Kg body weight.
The subject of the next series is skin. Conditions: doses of niacin over 50 mg.

On to `COC(=O)c1cccnc1` [methyl nicotinate], for which the “vasodilatory response compared to the acetylcholine and sodium nitroprusside responses” value in series [1] (control group, foot) is recorded as “higher”. For the same compound, in series [1] (control group, forearm), the “vasodilatory response, comparison between agents” value is on record as “similar”. Moreover, in series [1] (diabetic patients, forearm and foot level), the “maximal vasodilatory response, comparison between agents” value was “similar”. Further, in series [1] (topical 1% methyl nicotinate), the “time after application at which vasodilation was present” value was 5 min, the “time of decline of vasodilation to pre-application levels” value is 120 min and the “time of peak vasodilation” value is 15 to 30 min.

On to `O=C(O)c1cccnc1` [niacin, nicotinic acid], for which, in the series with healthy adults, the “duration of the decrease of core body temperature” value is “about 70 minutes”; the “time at which the sharp decrease in body temperature begins, after oral ingestion” value is recorded as “about 20 minutes”; the “time of the peak of continuous temperature reduction, after ingestion” value is listed as “about 50 minutes”; the “undesired side effect reported by a significant portion of the subjects” value is reported as “sever hypotension”. Also, the “decrease of core body temperature” value in the series on healthy adults (on average) is 0.44 °C. Besides, the “duration of flushing of the skin” value with skin is given as “about 60 minutes”.
